Holding throughout (format): in vivo
The nature of assay [1]: Flavor / organoleptic characteristics of the alkyldienamides. The settings on record: for Taste and flavor characteristics: organoleptic properties; for Primary characteristic / Secondary characteristic: flavor characteristics.
Assay [2] is described as follows: Alcoholic peach beverage tasting versus control beverage. The settings on record: 20 PPM compound plus 60 PPM peach flavor in 30° Proof alcoholic base. The method, then: Flavored beverages were prepared using the following 30° Proof alcoholic base:
The peach flavor applied to the beverages consisted of a blend of Gamma Decalactone, Benzaldehyde, Cis-3-hexenol, Butyric acid, 2-Methyl butyric acid, Iso butyl acetate, Linalool, and para-Mentha-8-thiol-3-one. The control beverage contained 60 PPM of the above flavor blend. […] Another beverage was prepared containing 60 PPM of the same flavor and 20 PPM of N-(3,4-methylenedioxy)benzyl E2,Z6-nonadienamide.

The nature of assay [3]: Non-alcoholic lemon lime beverage tasting versus control beverage. The settings on record: 0.5 PPM compound plus 35 PPM lemon oil/lime oil flavor; versus control beverage with flavor only. The method, then:
A non-alcoholic beverage formulation was prepared according to the following formulation: […]
The flavor applied to the beverages consisted of a blend of single fold lemon oil and distilled lime oil. The control beverage contained 35 PPM of this flavor. […] Another beverage was prepared containing 35 PPM of the same flavor and 0.5 PPM of N-Ethyl E2,Z6-nonadienamide.

The nature of assay [4]: Toothpaste tasting in normal tooth brushing versus control paste. The settings on record: 200 ppm compound added to mint control paste. As to the method:
The following separate groups of ingredients were prepared:
2.0 parts by weight of sodium n-Lauroyl sarcosinate (foaming agent)
1.0 parts by weight of the flavor material which is a blend of peppermint oil, spearmint oil, anethole, and menthol.
• (1) The ingredients in Group “A” were stirred and heated in a steam jacketed kettle to 160° F. • (2) Stirring was continued for an additional 3 to 5 minutes to form a homogeneous gel. • (3) The powders of Group “B” were added to the gel, while mixing until a homogeneous paste is formed. • (4) With stirring, the flavor of Group “D” was added, followed by addition immediately thereafter of the foaming agent of Group “C”. • (5) The resultant slurry was then blended for one hour.
The completed paste was then transferred to a three-roller mill, homogenized and finally tubed. […] To this control paste 200 ppm of N-Isobutyl E2,Z6-dodecadienamide is added.

Assay [5] can be described thus: Hard candy (cinnamon bark oil) tasting versus control candy. The settings on record: 100 PPM compound in cinnamon bark oil candy. As to the method:
The above ingredients were added to a stainless steel pot. With constant mixing the ingredients were brought to 295° F. The pot was removed from the heat and 0.5 grams of cinnamon bark oil was blended in. This liquid candy was then deposited into molds where it was left to cool. This recipe yielded 200 grams of finished candy. […] Another candy sample was prepared using the above recipe with the addition of 100 PPM of N-Methyl E2,Z6-nonadienamide.

In the case of `CC/C=C\CC/C=C/C(=O)NCC(C)O` (stereo not drawn) [N-(2-hydroxypropyl) E2,Z6-nonadienamide], the “Taste and flavor characteristics” value in assay [1] is “Cloying, fatty, cod liver oil, fishy”.

For the molecule `CCCCC/C=C\CC/C=C/C(=O)NCC(C)CC` (stereo not drawn) [N-(2-methylbutyl) E2,Z6-dodecadienamide], in assay [1], the Primary characteristic entry is recorded as “Fruity”; the Secondary characteristic result is “Salt like”; the “Taste and flavor characteristics” value is reported as “Slightly fruity, tingle, salty”.

For `CC/C=C\CC/C=C/C(=O)NCC(C)CC` (stereo not drawn) [N-(2-methylbutyl) E2,Z6-nonadienamide], in assay [1], the Primary characteristic result is “Bitter”; the Secondary characteristic entry is listed as “Tingle”; the “Taste and flavor characteristics” value was “Metallic, bitter, tingle”.

As to `CC/C=C\CC/C=C/C(=O)NCc1ccc2c(c1)OCO2` [N-(3,4-methylenedioxy) benzyl E2,Z6-nonadienamide], in assay [2], the “Taste effect in alcoholic beverage” value is “an enhanced perception of alcohol, increased flavor impact, and a tingle effect on the tongue”. Besides, in assay [1], the Primary characteristic result is on record as “Numbing”; the Secondary characteristic result is “Tingle”; the “Taste and flavor characteristics” value was “Numbing and tingle”.

Take `CC/C=C\CC/C=C/C(=O)NC1CC1` [N-cyclopropyl E2,Z6-nonadienamide]: in assay [1], the Primary characteristic entry is recorded as “Umami” and the Secondary characteristic entry is on record as “Enhancement”.

Turning to `CCCCC/C=C\CC/C=C/C(=O)NCC` [N-ethyl E2,Z6-dodecadienamide], in assay [1], the Primary characteristic result is given as “MSG like” and the Secondary characteristic result is “Burning”.

With `CC/C=C\CC/C=C/C(=O)NCC` [N-ethyl E2,Z6-nonadienamide], in assay [1], the Primary characteristic result was “Umami”; the Secondary characteristic result is “Enhancement”; the “Taste and flavor characteristics” value is listed as “Umami character”. Also, in assay [3], the “Taste effect in non-alcoholic beverage” value was “enhanced flavor impact, increased tartness, and an increased perception of freshness”.

For the molecule `CCCCC/C=C\CC/C=C/C(=O)NCC(C)C` [N-isobutyl E2,Z6-dodecadienamide], in assay [1], the Primary characteristic result is “Numbing” and the Secondary characteristic entry is “Tingle”. In assay [4], the “Additional sensation of toothpaste (tingle, numbing)” value was “tingle on the tongue and a slight numbing on the lips”; the “Flavor / cooling of toothpaste” value is “moderate cooling without the bitterness of the control sample”.

Take `CC/C=C\CC/C=C/C(=O)NCC(C)C` [N-isobutyl E2,Z6-nonadienamide]: the Secondary characteristic result in assay [1] is on record as “MSG like”.

Take `CCCCC/C=C\CC/C=C/C(=O)NC(C)C` [N-isopropyl E2,Z6-dodecadienamide]: in assay [1], the Secondary characteristic entry was “Tingle”; the “Taste and flavor characteristics” value was “Oily flavor, slight tingle”.

Turning to `CC/C=C\CC/C=C/C(=O)NC(C)C` [N-isopropyl E2,Z6-nonadienamide], in assay [1], the Primary characteristic result was “Cucumber taste”; the Secondary characteristic result was “Tingle”; the “Taste and flavor characteristics” value was “Oily, cucumber, some tingle, bitter”.

Regarding `CC/C=C\CC/C=C/C(=O)NC` [N-methyl E2,Z6-nonadienamide], in assay [1], the Primary characteristic result was “Tingle”; the Secondary characteristic entry is given as “Numbing”; the “Taste and flavor characteristics” value was “Warming, tingle”. Moreover, the “Taste effect in hard candy” value in assay [5] was “a greener flavor with less warmth, a slight numbing and a moderate level of tingle”.

(Values after patent US7632531B2, “Alkyldienamides exhibiting taste and sensory effect in flavor compositions” (International Flavors & Fragnances Inc., priority 2003, dated 2009).)
